US20240018132A1, “5-HYDROXY-1,4-NAPHTHALENEDIONE FOR USE IN THE TREATMENT OF CANCER” (GODAVARI BIOREFINERIES LIMITED, priority 2020, published 2024)

Legend:
MDAMB231 [1] = assay: In vitro antiproliferative assay (MTT assay), breast cancer cell line; type: cell-based; settings: Homo sapiens
Description: (§1) MTT assay is a simple and sensitive assay where, metabolic reducing activity of the cells is measured. The increase of this activity in time is taken as a parameter of cell growth. If treatment with a drug impairs this increase, the action is a consequence of growth inhibition, cell killing or both. […] All cell lines were cultured in a 37° C. incubator with a 5% CO2 environment. Compounds were dissolved in DMSO with a concentration of 0.1M (stock solution). Cells were seeded into 96-well plates at suitable plating efficiency.
(§2) Following plating efficiencies were standardized for MTT assay:
(§3) In the MTT procedure, the cells were plated in 96 well plates as per predetermined plating efficiency (Table1). The plates were then incubated for 24 hrs in 5% CO2 atmosphere at 37° C. Appropriate concentrations of the drugs were then added to the plate and further incubation was carried out for 48 hrs (in 5% CO2 atmosphere at 37° C.). The assay plate was then centrifuged twice at 3000 rpm for 3 mins and supernatant was then discarded. 100 ul of MTT solution (0.5 mg/ml) was then added to each well of the plate and it was further incubated for 4 hrs (in 5% CO2 atmosphere at 37° C.) Following 4 hr incubation, the plate was then centrifuged twice, and supernatant was aspirated off very carefully. 200 ul of DMSO was then added to each well to solubilize. MTT crystals and mixed well by shaking the plate. XY graph of log percent viability was then plotted against log drug concentration.

PC3 [2] = assay: In vitro antiproliferative assay (MTT assay), prostate cancer cell line; type: cell-based; settings: Homo sapiens
Description: as §1, §2, §3

MDAMB231 [3] = assay: In vitro sphere-forming assay (cancer stem cells), Mammosphere media; settings: for viability at 0.025 µM / viability at 0.25 µM / viability at 2.5 µM / viability at 25 µM / viability at 250 µM / viability at 0.0025 µM: Homo sapiens, MDA-MB-231, read-out: % Viability of spheres (MDAMB231); for 3D sphere count of MDAMB231: Mammosphere media, 2000 cells/well, n = 6 ± S.D
Description: In Vitro Sphere-forming Assay: Sphere assay measures the ability of cancer stem cells (CSCs) to form spheres in specially designed serum-free medium.
Mammosphere Media Preparation (For 100 mL): 1 g methyl cellulose autoclaved with magnetic stirrer, 100 ml plain media (MEBM) was added and dissolved under magnetic stirring. After complete dissolution FGF-80 μL, EGF-40 μL, Penstrep-1 mL, Heparin-400 μL was added.
Procedure—The cells were trypsinised and made into single-cell suspension by passing through cell strainers (100 μl and 40 μl, respectively), The cells were diluted at a concentration of 2000 cells/100 μL and suspended in either Mammosphere (for breast cell lines) or Prostosphere (for prostate cell lines). 100 μL of this suspension was added into each well of 96-well suspension plates and incubated at 37° C., 5% CO2 for 24 hrs. Appropriate concentrations of the drugs (2 μL) were added into respective wells with 100 μL of stem cell culture medium. Plates were incubated at 37° C., 50 CO2 for 72 hrs. After incubation, 2.5 μL of the respective drug concentration and 50 μL of stem cell culture medium were added into each well and the plates were further incubated at 37° C., 50% CO2 for 72 hrs. 3 μL of the respective drug concentration was added with 50 μL of stem cell culture medium again after incubation and plates were reincubated for 72 hrs at 37° C., 50 CO2. Number of primary spheres formed for each concentration were counted. The spheres were converted to 0 viability of spheres compared to untreated (Growth Control with DMSO, GCD).

PC3 [4] = assay: In vitro sphere-forming assay (cancer stem cells), Prostosphere media; settings: for viability at 0.025 µM / viability at 0.25 µM / viability at 2.5 µM / viability at 25 µM / viability at 250 µM / viability at 0.0025 µM: Homo sapiens, PC-3, read-out: % Viability of spheres (PC3); for 3D sphere count of PC3: Prostosphere media, 2000 cells/well, n = 6 ± S.D
[5] = MDA-MB-231, 48 h, MTT assay, breast cancer MDAMB231, 48 hrs drug incubation
[6] = PC-3, 48 h, MTT assay, prostate cancer PC3, 48 hrs drug incubation
[7] = MDA-MB-231, MTT assay, MDAMB231

Row | Compound | IC50 (MDAMB231 [1]; [5]) [nM] | IC50 (PC3 [2]; [6]) [nM] | viability at 0.025 µM (MDAMB231 [3]) [%] | viability at 0.25 µM (MDAMB231 [3]) [%] | viability at 2.5 µM (MDAMB231 [3]) [%] | viability at 25 µM (MDAMB231 [3]) [%] | viability at 250 µM (MDAMB231 [3]) [%] | 3D sphere count of MDAMB231 (MDAMB231 [3]; drug 0.025 uM) | 3D sphere count of MDAMB231 (MDAMB231 [3]; drug 0.25 uM) | 3D sphere count of MDAMB231 (MDAMB231 [3]; drug 2.5 uM) | 3D sphere count of MDAMB231 (MDAMB231 [3]; drug 25 uM) | 3D sphere count of MDAMB231 (MDAMB231 [3]; drug 250 uM) | viability at 0.025 µM (PC3 [4]) [%] | viability at 0.25 µM (PC3 [4]) [%] | viability at 2.5 µM (PC3 [4]) [%] | viability at 25 µM (PC3 [4]) [%] | 3D sphere count of PC3 (PC3 [4]; drug 0.025 uM) | 3D sphere count of PC3 (PC3 [4]; drug 0.25 uM) | 3D sphere count of PC3 (PC3 [4]; drug 2.5 uM) | 3D sphere count of PC3 (PC3 [4]; drug 25 uM) | also measured
1 | O=C1C(c2ccc(F)cc2)=CC(=O)c2c(OCCN3CCOCC3)cccc21 [Formula 7, 5-(2-morpholinoethoxy)-2-(4-fluorophenyl) naphthalene-1,4-dione] | 451 | 246 | 83 | 60 | 43 | 31 | 15 | 59(±3) | 43(±3) | 31(±3) | 22(±3) | 11(±3) | 71 | 50 | 35 | 21 | 57(±3) | 40(±3) | 28(±2) | 17(±3) | viability at 250 µM (PC3 [4]): 11%; 3D sphere count of PC3 (PC3 [4]; drug 250 uM): 9(±2)
2 | COc1ccc(NC2=CC(=O)c3c(OCCN4CCOCC4)cccc3C2=O)cc1 [Formula 37, 5-(2-morpholinoethoxy)-2-(4-methoxyphenylamino) naphthalene-1,4-dione] | 4610 | 4440 | 82 | 66 | 56 | 39 | 23 | 82(±4) | 66(±5) | 56(±4) | 39(±3) | 23(±3) | 89 | 69 | 56 | 37 | 89(±3) | 69(±3) | 56(±4) | 37(±4) | viability at 250 µM (PC3 [4]): 20%; 3D sphere count of PC3 (PC3 [4]; drug 250 uM): 20(±4)
3 | O=C1C(Oc2ccc3c(c2)OCO3)=CC(=O)c2c(OCCN3CCOCC3)cccc21 [Formula 46, 5-(2-morpholinoethoxy)-2-(benzo[d][1,3]dioxol-5-yloxy)naphthalene-1,4-dione] | 1370 | 1350 | 60 | 49 | 32 | 20 | – | 54(±4) | 44(±4) | 29(±3) | 18(±3) | – | 67 | 51 | 36 | 22 | 54(±4) | 41(±3) | 29(±3) | 18(±3) | viability at 0.0025 µM (MDAMB231 [3]): 74%; 3D sphere count of MDAMB231 (MDAMB231 [3]; drug 0.0025 uM): 67(±5); viability at 0.0025 µM (PC3 [4]): 82%; 3D sphere count of PC3 (PC3 [4]; drug 0.0025 uM): 66(±3)
4 | O=C1C(Oc2ccc3c(c2)OCO3)=CC(=O)c2c(OCCCCN3CCOCC3)cccc21 [Formula 47, 5-(4-morpholinobutoxy)-2-(benzo[d][1,3]dioxol-5-yloxy)naphthalene-1,4-dione] | 970 | 582 | 59 | 43 | 27 | 17 | – | 53(±3) | 39(±3) | 25(±5) | 16(±3) | – | 57 | 43 | 28 | 18 | 46(±4) | 35(±3) | 23(±3) | 15(±3) | viability at 0.0025 µM (MDAMB231 [3]): 78%; 3D sphere count of MDAMB231 (MDAMB231 [3]; drug 0.0025 uM): 71(±2); viability at 0.0025 µM (PC3 [4]): 77%; 3D sphere count of PC3 (PC3 [4]; drug 0.0025 uM): 62(±4)
5 | COc1ccc(OC2=CC(=O)c3c(OCCN4CCCCC4)cccc3C2=O)cc1 [Formula 84] | – | – | – | – | – | – | – | – | – | – | – | – | – | – | – | – | – | – | – | – | IC50 (MDAMB231 [1]; [7]): 562 nM; IC50 (PC3 [2]; PC-3, MTT assay, PC3): 492 nM
6 | COc1ccc(OC2=CC(=O)c3c(OCCCCN4CCOCC4)cccc3C2=O)cc1 [Formula 85] | – | – | – | – | – | – | – | – | – | – | – | – | – | – | – | – | – | – | – | – | IC50 (MDAMB231 [1]; [7]): 4140 nM; IC50 (PC3 [2]; PC-3, MTT assay, PC3): 2360 nM
